Experiments:
living cells [1] = test: uptake into living cells, spinning disk confocal microscopy; assay type: cell-based
Method: (§1) More specifically, the cytotoxicity of DBOV-Mes-OTEG was tested in living cells. […] Moreover, the uptake of DBOV-Mes-OTEG into living cells was investigated by imaging 21 hours with low laser intensity at the spinning disk confocal microscopy (Visitron).

fixed cell samples = test: blinking-mode imaging of fixed samples in PBS; conditions: fixed samples in PBS without special imaging buffer; continuous exposure, laser intensity 10 kW/cm^2 for 90 min
Text: After the aforementioned live cell imaging, the samples were fixed and imaged in phosphate-buffered saline (PBS) without special imaging buffer.

solubility in water = assay type: physicochemical; conditions: room temperature
Method: In accordance with the present invention, the solubility of the compound having the general formula (1) in water at 23° C. is measured as follows: 1.0 mg sample is weighed into an Erlenmeyer flask and is then mixed homogeneously with 4 ml of water with a spatula at 23° C. The remaining substance on the spatula is stripped off with a magnetic stirrer bar, which is then added to the Erlenmeyer flask. While stirring with a magnetic stirrer, water is added dropwise with a burette until the solution in the Erlenmeyer flask becomes clear at 23° C. After that, the solubility of compound in water is calculated by calculating the ratio of weighed compound divided by the volume of added water and then by recalculating this ratio to 1 l of water.

living cells [2] = test: cytotoxicity test in living cells; assay type: cell-based; conditions: concentration of 1 μM
Method: as §1

- solubility in water (solubility in water): 0.1 mg/mL
Substance: 3,4,5-tris(2,5,8,11-tetraoxatridecan-13-yloxy)phenyl substituted 6,14-dimesityldibenzo[hi,st]ovalene [DBOV-Mes-OTEG]
- intracellular location (living cells [1]; after 21 hours incubation): in the nucleus and nuclear membrane
- uptake / intracellular location (living cells [1]; beginning of the incubation): taken into the cytoplasm
- stability of blinking signals (photostability) (fixed cell samples): no significant decrease of blinking signals
- cytotoxicity (living cells [2]): does not show any significant toxicity

— US11958796B2, “Hydrophilic and particularly water soluble DBOV-derivatives” (Max-Planck-Gesellschaft zur Förderung der Wissenschaften …, priority 2018, dated 2024)
